Results published in patent US12378224B2 (Dong-A Socio Holdings Co., Ltd., priority 2016, dated 2025).

Molecular target: human MER (528-end) (Homo sapiens (Human), UniProt Q12866)
Test: HTRF Kinase Activity Biochemical Assay (KinEASE-TK)
Details: 10 uM ATP
Summary of the method: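 Recombinant human MER (528-end) phosphorylated biotin-TK peptide substrate, 1 h at room temperature. Reaction stopped with detection buffer containing 0.375 nM Eu3+-cryptate anti-TK antibody and 0.062 uM streptavidin-XL665, 1 h further. Activity taken as HTRF ratio 665/620 nm ×10,000, 340 nm excitation.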

human MER (528-end), sequence (Q12866 528-999 limits assumed): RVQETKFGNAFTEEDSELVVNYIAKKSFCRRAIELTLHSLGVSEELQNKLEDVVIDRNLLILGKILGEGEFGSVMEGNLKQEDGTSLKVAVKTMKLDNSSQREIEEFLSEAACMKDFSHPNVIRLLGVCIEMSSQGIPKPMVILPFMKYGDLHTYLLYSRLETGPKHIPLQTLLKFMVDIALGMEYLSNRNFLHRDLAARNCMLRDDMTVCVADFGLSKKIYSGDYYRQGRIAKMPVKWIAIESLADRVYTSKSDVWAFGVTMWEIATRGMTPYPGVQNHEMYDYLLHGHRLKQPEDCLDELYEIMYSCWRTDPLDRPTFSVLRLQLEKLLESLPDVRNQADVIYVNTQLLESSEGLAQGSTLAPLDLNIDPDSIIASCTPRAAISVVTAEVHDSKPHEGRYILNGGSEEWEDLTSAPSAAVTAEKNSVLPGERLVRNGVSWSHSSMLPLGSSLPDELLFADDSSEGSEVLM

| IC50 [nM] | SMILES |
| --- | --- |
| 100 to 1000 | Cn1cc(-c2cnc(N)c(C(=O)N[C@@H]3CCN(C(=O)c4ccc(-c5ccc(Oc6ccccc6)cc5)cc4)C3)c2)cn1 [Example 527, (R)-2-amino-5-(1-methyl-1H-pyrazol-4-yl)-N-(1-(4′-phenoxy-[1,1′-biphenyl]-4-carbonyl)pyrrolidin-3-yl)nicotinamide] |
| > 1000 | COc1ccc(Oc2ccc(-c3ccc(C(=O)N4CC[C@@H](NC(=O)c5cc(-c6cnn(C)c6)cnc5N)C4)cc3)cc2)cc1 [Example 528, (R)-2-amino-N-(1-(4′-(4-methoxyphenoxy)-[1,1′-biphenyl]-4-carbonyl)pyrrolidin-3-yl)-5-(1-methyl-1H-pyrazol-4-yl)nicotinamide] |
| 100 to 1000 | Cc1ccc(-c2ccc(C(=O)N3CC[C@@H](NC(=O)c4cc(-c5cnn(C)c5)cnc4N)C3)cc2O)s1 [Example 535, (R)-2-amino-N-(1-(3-hydroxy-4-(5-methylthiophen-2-yl)benzoyl)pyrrolidin-3-yl)-5-(1-methyl-1H-pyrazol-4-yl)nicotinamide] |
| 100 to 1000 | CC(=O)c1ccc(-c2ccc(C(=O)N3CC[C@@H](NC(=O)c4cc(-c5cnn(C)c5)cnc4N)C3)cc2)s1 [Example 538, (R)—N-(1-(4-(5-acetylthiophen-2-yl)benzoyl)pyrrolidin-3-yl)-2-amino-5-(1-methyl-1H-pyrazol-4-yl)nicotinamide] |
| > 1000 | Cc1onc(N)c1-c1ccc(C(=O)N2CC[C@@H](NC(=O)c3cc(-c4cnn(C)c4)cnc3N)C2)cc1 [Example 540, (R)-2-amino-N-(1-(4-(3-amino-5-methylisoxazol-4-yl)benzoyl)pyrrolidin-3-yl)-5-(1-methyl-1H-pyrazol-4-yl)nicotinamide] |
| 100 to 1000 | Cc1cnc(-c2ccc(C(=O)N3CC[C@@H](NC(=O)c4cc(-c5cnn(C)c5)cnc4N)C3)cc2)s1 [Example 543, (R)-2-amino-5-(1-methyl-1H-pyrazol-4-yl)-N-(1-(4-(5-methylthiazol-2-yl)benzoyl)pyrrolidin-3-yl)nicotinamide] |
| 100 to 1000 | Cc1csc(-c2ccc(C(=O)N3CC[C@@H](NC(=O)c4cc(-c5cnn(C)c5)cnc4N)C3)cc2)n1 [Example 544, (R)-2-amino-5-(1-methyl-1H-pyrazol-4-yl)-N-(1-(4-(4-methylthiazol-2-yl)benzoyl)pyrrolidin-3-yl)nicotinamide] |
| > 1000 | Cn1cc(-c2cnc(N)c(C(=O)N[C@@H]3CCN(C(=O)c4nc5ccccc5[nH]4)C3)c2)cn1 [Example 545, (R)—N-(1-(1H-benzo[d]imidazole-2-carbonyl)pyrrolidin-3-yl)-2-amino-5-(1-methyl-1H-pyrazol-4-yl)nicotinamide] |
| 100 to 1000 | Cn1cc(-c2cnc(N)c(C(=O)N[C@@H]3CCN(C(=O)c4ccc(-c5ccc(CN6CCC(N)CC6)cc5)cc4)C3)c2)cn1 [Example 547, (R)-2-amino-N-(1-(4′-((4-aminopiperidin-1-yl)methyl)-[1,1′-biphenyl]-4-carbonyl)pyrrolidin-3-yl)-5-(1-methyl-1H-pyrazol-4-yl)nicotinamide] |
| 100 to 1000 | CN1CCC(COc2ccc(-c3ccc(C(=O)N4CC[C@@H](NC(=O)c5cc(-c6cnn(C)c6)cnc5N)C4)cc3)cc2)CC1 [Example 552, (R)-2-amino-5-(1-methyl-1H-pyrazol-4-yl)-N-(1-(4′-((1-methylpiperidin-4-yl)methoxy)-[1,1′-biphenyl]-4-carbonyl)pyrrolidin-3-yl)nicotinamide] |
| > 1000 | Cn1cc(-c2cnc(N)c(C(=O)N[C@@H]3CCN(C(=O)c4ccc(C#CCCO)cc4)C3)c2)cn1 [Example 553, (R)-2-amino-N-(1-(4-(4-hydroxybut-1-yn-1-yl)benzoyl)pyrrolidin-3-yl)-5-(1-methyl-1H-pyrazol-4-yl)nicotinamide] |
| 100 to 1000 | Cn1cc(-c2cnc(N)c(C(=O)N[C@@H]3CCN(C(=O)c4ccc(C#CCCCO)cc4)C3)c2)cn1 [Example 554, (R)-2-amino-N-(1-(4-(5-hydroxypent-1-yn-1-yl)benzoyl)pyrrolidin-3-yl)-5-(1-methyl-1H -pyrazol-4-yl)nicotinamide] |
| 10 to 100 | CN1CCN(c2ccc(-c3cnc(N)c(C(=O)N[C@@H]4CCN(C(=O)c5ccc(-c6ccccc6)cc5)C4)c3)cc2)CC1 [Example 556, (R)—N-(1-([1,1′-biphenyl]-4-carbonyl)pyrrolidin-3-yl)-2-amino-5-(4-(4-methylpiperazin-1-yl)phenyl)nicotinamide] |
| 10 to 100 | Nc1ncc(-c2cccnc2)cc1C(=O)N[C@@H]1CCN(C(=O)c2ccc(-c3ccccc3)cc2)C1 [Example 558, (R)—N-(1-([1,1′-biphenyl]-4-carbonyl)pyrrolidin-3-yl)-6-amino-[3,3′-bipyridine]-5-carboxamide] |
| 100 to 1000 | Nc1ncc(-c2ccc(F)nc2)cc1C(=O)N[C@@H]1CCN(C(=O)c2ccc(-c3ccccc3)cc2)C1 [Example 560, (R)—N-(1-([1,1′-biphenyl]-4-carbonyl)pyrrolidin-3-yl)-6-amino-6′-fluoro-[3,3′-bipyridine]-5-carboxamide] |
| 10 to 100 | Nc1ncc(-c2cnn(C3CCNCC3)c2)cc1C(=O)N[C@@H]1CCN(C(=O)c2ccc(-c3ccccc3)cc2)C1 [Example 562, (R)—N-(1-([1,1′-biphenyl]-4-carbonyl)pyrrolidin-3-yl)-2-amino-5-(1-(piperidin-4-yl)-1H-pyrazol-4-yl)nicotinamide] |
| 10 to 100 | CN1CCC(n2cc(-c3cnc(N)c(C(=O)N[C@@H]4CCN(C(=O)c5ccc(-c6ccccc6)cc5)C4)c3)cn2)CC1 [Example 563, (R)—N-(1-([1,1′-biphenyl]-4-carbonyl)pyrrolidin-3-yl)-2-amino-5-(1-(1-methylpiperidin-4-yl)-1H-pyrazol-4-yl)nicotinamide] |
| 100 to 1000 | Nc1ncc(-c2ccc(CO)cc2)cc1C(=O)N[C@@H]1CCN(C(=O)c2ccc(-c3ccccc3)cc2)C1 [Example 568, (R)—N-(1-([1,1′-biphenyl]-4-carbonyl)pyrrolidin-3-yl)-2-amino-5-(4-(hydroxymethyl)phenyl)nicotinamide] |
| 10 to 100 | COCCn1cc(-c2cnc(N)c(C(=O)N[C@@H]3CCN(C(=O)c4ccc(-c5ccccc5Cl)cc4)C3)c2)cn1 [Example 573, (R)-2-amino-N-(1-(2′-chloro-[1,1′-biphenyl]-4-carbonyl)pyrrolidin-3-yl)-5-(1-(2-methoxyethyl)-1H-pyrazol-4-yl)nicotinamide] |
| 10 to 100 | Nc1ncc(-c2ccc(S(N)(=O)=O)cc2)cc1C(=O)N[C@@H]1CCN(C(=O)c2ccc(-c3ccccc3Cl)cc2)C1 [Example 575, (R)-2-amino-N-(1-(2′-chloro-[1,1′-biphenyl]-4-carbonyl)pyrrolidin-3-yl)-5-(4-sulfamoylphenyl)nicotinamide] |
| 100 to 1000 | CS(=O)(=O)Nc1ccc(-c2cnc(N)c(C(=O)N[C@@H]3CCN(C(=O)c4ccc(-c5ccccc5Cl)cc4)C3)c2)cc1 [Example 576, (R)-2-amino-N-(1-(2′-chloro-[1,1′-biphenyl]-4-carbonyl)pyrrolidin-3-yl)-5-(4-(methylsulfonamido)phenyl)nicotinamide] |
| 10 to 100 | CC(C)(C)n1cc(-c2cnc(N)c(C(=O)N[C@@H]3CCN(C(=O)c4ccc(-c5ccccc5Cl)cc4)C3)c2)cn1 [Example 577, (R)-2-amino-5-(1-(tert-butyl)-1H-pyrazol-4-yl)-N-(1-(2′-chloro-[1,1′-biphenyl]-4-carbonyl)pyrrolidin-3-yl)nicotinamide] |
